Reference: patent publication US8680282B2, “Cyclic inhibitors of carnitine palmitoyltransferase and treating cancer” (University Health Network, priority 2007, dated 2014)

Legend:
Experiment in all cases: Cancer cell growth inhibition, SRB assay
[1] = system: MCF-7; type: cell-based, human; set-up: Percentage of Growth Inhibition: scale not given here; details: SRB at Day 6
How it was run: (§1)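 Growth inhibition after 6 days in low-serum (3% FBS) DMEM, quantified by sulforhodamine B staining at 570 nm.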

[2] = system: H358; type: cell-based, human; set-up: Percentage of Growth Inhibition: unit not given here; details: SRB at Day 6
How it was run: as §1

[3] = system: HCT-8; type: cell-based, human; details: at 10 μM, SRB at Day 6
[4] = system: H460; type: cell-based, human; details: H460; at 10 μM; SRB at Day 6; NE = no activity at 10 micromolar
How it was run: as §1

[5] = system: PC-3; type: cell-based, human; details: SRB at Day 6; for GI50: Homo sapiens, 144 h, PC-3 (Prostate), triplicate
How it was run: as §1

[6] = system: A549; type: cell-based, human; set-up: Percentage of Growth Inhibition: scale not given here; details: SRB at Day 6
[7] = system: MDA-231; type: cell-based, human; details: SRB at Day 6
[8] = system: SW626; type: cell-based, human; set-up: Percentage of Growth Inhibition: scale not given here; details: Homo sapiens, 144 h; SW626 (Ovarian); SRB at Day 6; triplicate
How it was run: as §1

[9] = system: COLO-205; type: cell-based, human; details: Homo sapiens, 144 h; COLO-205 (Colon); SRB at Day 6; triplicate
[10] = system: SW480; type: cell-based, human; details: Homo sapiens, 144 h; SW480 (Colon); SRB at Day 6; triplicate
[11] = system: HCT-15; type: cell-based, human; details: Homo sapiens, 144 h; HCT-15 (Colon); SRB at Day 6; triplicate
[12] = system: Caov-3; type: cell-based; details: Homo sapiens, 144 h; Caov-3 (Ovarian); SRB at Day 6; triplicate
[13] = system: A172; type: cell-based, human; details: Homo sapiens, A 172, 144 h; A172 (Brain); SRB at Day 6; triplicate
How it was run: as §1

[14] = system: SW620; type: cell-based, human; details: Homo sapiens, SW-620, 144 h; SW620 (Colon); SRB at Day 6; triplicate
[15] = system: Hs578T; type: cell-based; details: Homo sapiens, Hs-578T, 144 h; Hs578T (Breast); SRB at Day 6; triplicate
[16] = system: TOV-21G; type: cell-based; details: Homo sapiens, TOV21G, 144 h; SRB at Day 6; triplicate

## CCCCCc1ccc(S(=O)(=O)NC2(CC(=O)O)CN(C)C2)cc1 [Example S27, 3-(carboxymethyl)-1-methyl-3-(4-pentylphenylsulfonamido)azetidinium 2,2,2-trifluoroacetate]
[1]; MCF-7, at 10 μM, NE = no activity at 10 micromolar
  Percentage of Growth Inhibition: 0.05347%
[2]; H358, at 10 μM, NE = no activity at 10 micromolar
  Percentage of Growth Inhibition: 0.07312
[3]
  Percentage of Growth Inhibition: 0.09153%
[4]
  Percentage of Growth Inhibition: 0.00556%
[5]; PC-3, at 10 μM, NE = no activity at 10 micromolar
  Percentage of Growth Inhibition: 0.0865%
[6]; A549, at 10 μM, NE = no activity at 10 micromolar
  Percentage of Growth Inhibition: 0.06854%
[7]; MDA-231, at 10 μM, NE = no activity at 10 micromolar
  Percentage of Growth Inhibition: 0.1338%

## CCCCCCCCc1ccc(NS(=O)(=O)NC2(CC(=O)O)CCC[N+](C)(C)C2)cc1 (stereo not drawn) [Example S16, 3-(carboxymethyl)-1,1-dimethyl-3-(N-(4-octylphenyl)sulfamoylamino)-piperidinium 2,2,2-trifluoroacetate]
[1]; Homo sapiens, MCF7, 144 h, MCF-7 (Breast), triplicate
  GI50: 3.9 µM
[8]
  GI50: 18 µM
[2]; Homo sapiens, NCI-H358, 144 h, H358 (Lung), triplicate
  GI50: 1.4 µM
[9]
  GI50: 10 µM
[10]
  GI50: 4 µM
[11]
  GI50: 36 µM
[12]
  GI50: 2.5 µM
[13]
  GI50: 1.1 µM
[5]
  GI50: 2.1 µM
[6]; Homo sapiens, 144 h, A549 (Lung), triplicate
  GI50: 6.2 µM
[14]
  GI50: 20 µM
[7]; Homo sapiens, MDA-MB-231, 144 h, MDA-231 (Breast), triplicate
  GI50: 0.5 µM
[15]
  GI50: 17 µM

## CCCCCc1ccc(S(=O)(=O)NC2(CC(=O)O)CC[N+](C)(C)CC2)cc1 [Example S4, 4-(Carboxymethyl)-1,1-dimethyl-4-(4-pentylphenylsulfonamido)piperidinium 2,2,2-trifluoroacetate]
[9]
  GI50: > 50 µM
[10]
  GI50: > 50 µM
[16]
  GI50: 44 µM
[11]
  GI50: > 50 µM
[13]
  GI50: > 50 µM
[5]
  GI50: > 50 µM
[14]
  GI50: > 50 µM
